Reference: patent US20100311586A1, “HERBICIDAL COMBINATION” (Bayer CorpScience AG, priority 2007, published 2010)
“And” between values parts separate entries of the source, which are not always exact repeats. Identical values can stand only once.

Test system: Polygonum convolvulus
Assay: Post-emergence action against weeds, greenhouse pot test, visual scoring
Type: in vivo
Settings: 11 days after application, 0%=no control, 100%=complete control
Protocol: Seeds or rhizome pieces of monocotyledonous and dicotyledonous weeds were placed in sandy loam soil in plastic pots, covered with soil and cultivated in a greenhouse under good growth conditions. Three weeks after sowing, the test plants were treated at the 2- to 4-leaf stage. The compounds according to the invention, formulated as wettable powders or as emulsion concentrates, were sprayed onto the green parts of the plants in various dosages at a water application rate of 100 to 800 I/ha (converted). After the test plants had been left to stand in the greenhouse for 10 to 28 days under optimum growth conditions, the effect of the preparations was scored visually in comparison to untreated controls.
0%=no control 100%=complete control

## Nc1c([N+](=O)[O-])ccc(Oc2ccccc2)c1Cl [Compound B1-2, aclonifen]
100 g of ai/ha
  Polygonum convolvulus Control in %: 20%

## Cc1cc(Cl)ccc1O[C@H](C)C(=O)O [Compound B4-5, mecoprop-P]
200 g of ai/ha
  Polygonum convolvulus Control in %: 50%

## O=C(O)COc1ccc(Cl)cc1Cl [Compound B5-2, 2,4-D]
200 g of ai/ha
  Polygonum convolvulus Control in %: 55%

## Cc1cc(Cl)ccc1OCC(=O)O [Compound B5-3, MCPA]
200 g of ai/ha
  Polygonum convolvulus Control in %: 50%

## C#CCOC(=O)[C@@H](C)Oc1ccc(Oc2ncc(Cl)cc2F)cc1 [Compound B7-1, clodinafop-propargyl]
20 g of ai/ha
  Polygonum convolvulus Control in %: 5%

## COC(=O)C(C)Oc1ccc(Oc2ccc(Cl)cc2Cl)cc1 (centres unmarked) [Compound B7-3, diclofop-methyl]
1000 g of ai/ha
  Polygonum convolvulus Control in %: 15%

## CCOC(=O)[C@@H](C)Oc1ccc(Oc2nc3ccc(Cl)cc3o2)cc1 [Compound B7-5, fenoxaprop-P-ethyl]
45 g of ai/ha
  Polygonum convolvulus Control in %: 35%

## sodium salt of 2-iodo-N-[(4-methoxy-6-methyl-1,3,5-triazin-2-yl)carbamoyl]benzenesulfonamide [Compound A-2]
2.5 g of ai/ha
  Polygonum convolvulus Control in %: 10% and 20%
